Like-named read-outs stand apart in the source and are kept apart here. Marks after values point to notes of the source that are not given here.
Columns and labels:
[1] = Measurement of LogP values by HPLC on reversed phase columns (EEC directive 79/831 Annex V.A8); assay type: physicochemical; conditions: for chromatographic logP: method [a]: LC-UV, acidic range, 0.1% formic acid in water and acetonitrile as eluent
Protocol: Measurement of Log P values was performed as outlined above.

[2] = system: Puccinia recondita; test: In vivo preventive test on Puccinia recondita (brown rust on wheat), Examples C and R3; conditions: preventive spray, evaluated 11 days after inoculation; for pest or weed control at 500 ppm / pest or weed control at 100 ppm: Puccinia recondita, 264 h
[3] = system: Septoria tritici; test: In vivo preventive test on Septoria tritici (leaf spot on wheat), Examples E, Q3 and R5; conditions: Zymoseptoria tritici, 576 h, preventive spray, evaluated 24 days after inoculation
[4] = system: Sphaerotheca fuliginea; test: In vivo preventive test on Sphaerotheca fuliginea (powdery mildew on cucurbits), Examples F and R6; conditions: Podosphaera fuliginea, 360 h, preventive spray, evaluated 15 days after inoculation
[5] = system: Uromyces appendiculatus; test: In vivo preventive test on Uromyces appendiculatus (bean rust), Examples G and R7; conditions: 264 h, preventive spray, evaluated 11 days after inoculation
[6] = 500 ppm of active ingredient, wheat, read-out: efficacy
[7] = 500 ppm of active ingredient, gherkin, read-out: efficacy
[8] = 500 ppm of active ingredient, bean, read-out: efficacy
[9] = Example R3, wheat, 100 ppm, read-out: Efficacy in %
[10] = Example R3, wheat, 500 ppm, read-out: Efficacy in %
[11] = Example R5, wheat, read-out: Efficacy in %
[12] = Example R5, wheat, 500 ppm, read-out: Efficacy in %
[13] = Example R6, gherkin, read-out: Efficacy in %
[14] = Example R6, gherkin, 500 ppm, read-out: Efficacy in %
[15] = Example R7, bean, read-out: Efficacy in %
[16] = Example R7, bean, 500 ppm, read-out: Efficacy in %

N#Cc1cncn1CC(O)(Cc1ccncc1Br)C1(Cl)CC1 (racemic) [Example I-46]
LogP [1]: 1.94^[a]

N#Cc1cncn1CC(O)(Cc1ccc(Oc2ccc(Cl)cc2)cc1Cl)C1(Cl)CC1 (racemic) [Example I-53]
LogP [1]: 4.54^[a]

O=C(Cc1ccccc1F)c1cncn1CC(O)(Cc1ccccc1F)C1(Cl)CC1 (racemic) [Example I-134]
LogP [1]: 3.60^[a]

OC(Cc1ccc(Cl)cc1F)(Cn1cnc(Br)c1)C1(Cl)CC1 (racemic) [drawing 98]
Efficacy in % ([2]; Example R3, wheat, 100 ppm): 0% | Efficacy in % ([2]; Example R3, wheat, 500 ppm): 94%

N#Cc1cn(CC(O)(Cc2ccc(Cl)cc2F)C2(Cl)CC2)cn1 (racemic) [drawing 100]
Efficacy in % ([2]; Example R3, wheat, 100 ppm): 81% | Efficacy in % ([2]; Example R3, wheat, 500 ppm): 94%

OC(Cc1ccc(Cl)cc1F)(Cn1cnc(Cl)c1)C1(Cl)CC1 (racemic) [drawing 102]
Efficacy in % ([2]; Example R3, wheat, 100 ppm): 0% | Efficacy in % ([2]; Example R3, wheat, 500 ppm): 67%

OC(Cc1ccc(Cl)cc1F)(Cn1cncc1Cl)C1(Cl)CC1 (single isomer, unassigned) [Example I-113]
LogP [1]: 2.54^[a]

N#Cc1cncn1CC(O)(Cc1ccccc1F)C1(Cl)CC1 (single isomer, unassigned) [Example I-132]
LogP [1]: 2.59^[a]

N#Cc1cncn1CC(O)(Cc1ccccc1F)C1(Cl)CC1 (single isomer, unassigned) [Example I-133]
LogP [1]: 2.59^[a]

OC(Cc1ccccc1Cl)(Cn1cncc1-c1ccccc1)C1(Cl)CC1 (stereo not shown) [Example I-09]
pest or weed control at 500 ppm [3, 6]: 70 to 79% | pest or weed control at 500 ppm [4, 7]: 90 to 100% | pest or weed control at 500 ppm [5, 8]: 90 to 100%

N#Cc1cncn1CC(O)(C(F)c1ccccc1F)C1(Cl)CC1 (stereo not shown) [Example I-31]
pest or weed control at 500 ppm [2, 6]: 90 to 100% | pest or weed control at 500 ppm [3, 6]: 90 to 100% | pest or weed control at 500 ppm [4, 7]: 90 to 100% | pest or weed control at 500 ppm [5, 8]: 90 to 100%

N#Cc1cncn1CC(O)(Cc1ccc(Cl)cc1Cl)C1(Cl)CC1 (stereo not shown) [Example I-52]
pest or weed control at 500 ppm [2, 6]: 80 to 89% | pest or weed control at 500 ppm [3, 6]: 90 to 100% | pest or weed control at 500 ppm [4, 7]: 90 to 100% | pest or weed control at 500 ppm [5, 8]: 90 to 100%

N#Cc1cncn1CC(O)(Cc1cc(Cl)nc(Cl)c1)C1(Cl)CC1 (stereo not shown) [Example I-61]
pest or weed control at 500 ppm [2, 6]: 70 to 79% | pest or weed control at 500 ppm [3, 6]: 90 to 100% | pest or weed control at 500 ppm [4, 7]: 90 to 100% | pest or weed control at 500 ppm [5, 8]: 90 to 100%

N#Cc1cncn1CC(O)(Cc1ccc(-c2ccccc2)cc1)C1(Cl)CC1 (stereo not shown) [Example I-63]
chromatographic logP ([1]; Table 1): 3.68

N#Cc1cncn1CC(O)(Cc1ccccc1Cl)C1CCC1 (stereo not shown) [Example I-81]
pest or weed control at 500 ppm [2, 6]: 90 to 100% | pest or weed control at 500 ppm [3, 6]: 90 to 100% | pest or weed control at 500 ppm [4, 7]: 90 to 100% | pest or weed control at 500 ppm [5, 8]: 90 to 100%

CC(C)(C)CC(O)(Cc1ccccc1Cl)Cn1cncc1C#N (stereo not shown) [Example I-83]
chromatographic logP ([1]; Table 1): 3.55

CC(C)(C)CC(O)(Cc1ccc(Cl)cc1)Cn1cncc1C#N (stereo not shown) [Example I-86]
chromatographic logP ([1]; Table 1): 3.37

N#Cc1cncn1CC(O)(Cc1ccc(F)c(F)c1F)C1(F)CC1 (stereo not shown) [Example I-93]
chromatographic logP ([1]; Table 1): 2.52

N#Cc1cncn1CC(O)(Cc1cccc(Cl)c1F)C1(F)CC1 (stereo not shown) [Example I-94]
chromatographic logP ([1]; Table 1): 2.68

N#Cc1cncn1CC(O)(Cc1ccc(F)cc1)C1(F)CC1 (stereo not shown) [Example I-100]
chromatographic logP ([1]; Table 1): 2.35

CC1(C(O)(Cc2ccc(F)c(F)c2F)Cn2cncc2C#N)CC1 (stereo not shown) [Example I-102]
chromatographic logP ([1]; Table 1): 2.82

N#Cc1cncn1CC(O)(Cc1ccc(Cl)cc1F)C1CC1 (stereo not shown) [Example I-115]
pest or weed control at 500 ppm [2, 6]: 90 to 100% | pest or weed control at 500 ppm [3, 6]: 90 to 100% | pest or weed control at 500 ppm [4, 7]: 90 to 100% | pest or weed control at 500 ppm [5, 8]: 90 to 100%

N#Cc1cncn1CC(O)(Cc1ccc(F)cc1F)C1CCC1 (stereo not shown) [Example I-127]
pest or weed control at 500 ppm [2, 6]: 80 to 89% | pest or weed control at 500 ppm [3, 6]: 90 to 100% | pest or weed control at 500 ppm [4, 7]: 90 to 100% | pest or weed control at 500 ppm [5, 8]: 90 to 100%

CCOC(=O)c1cncn1CC(O)(Cc1ccccc1F)C1(Cl)CC1 (stereo not shown) [Example I-135]
chromatographic logP ([1]; Table 1): 2.73

N#Cc1cncn1CC(O)(Cc1cccc(Cl)c1F)C1(Cl)CC1 (stereo not shown) [Example I-145]
chromatographic logP ([1]; Table 1): 3.02

N#Cc1cncn1CC(O)(Cc1ccc(F)cc1)C1(Cl)CCC1 (stereo not shown) [Example I-159]
chromatographic logP ([1]; Table 1): 2.98

N#Cc1cncn1CC(O)(Cc1ccc(F)cc1)C1CCC1 (stereo not shown) [Example I-160]
chromatographic logP ([1]; Table 1): 2.56

N#Cc1cncn1CC(O)(Cc1ccc(F)cc1)C1CCCC1 (stereo not shown) [Example I-161]
chromatographic logP ([1]; Table 1): 2.82

CC(C)C(O)(Cc1ccc(F)cc1)Cn1cncc1C#N (stereo not shown) [Example I-162]
chromatographic logP ([1]; Table 1): 2.44

N#Cc1cncn1CC(O)(Cc1ccncc1F)C1(Cl)CC1 (stereo not shown) [Example I-163]
chromatographic logP ([1]; Table 1): 1.62

N#Cc1cncn1CC(O)(Cc1ccnnc1Cl)C1(Cl)CC1 (stereo not shown) [Example I-168]
chromatographic logP ([1]; Table 1): 1.59

O=C(Cn1cncc1Cl)C1(Cl)CC1 [XVII-1, 1-(1-chlorocyclopropyl)-2-(5-chloro-1H-imidazol-1-yl)ethanone]
chromatographic logP ([1]; Table 2, compounds of formula (XVII)): 0.75

OC(Cc1ccccc1Cl)(Cn1cnc(Br)c1)C1(Cl)CC1 (stereo not shown) [drawing 87]
pest or weed control at 100 ppm [2, 9]: 75% | pest or weed control at 500 ppm [2, 10]: 81%

Cc1cn(CC(O)(Cc2ccccc2Cl)C2(Cl)CC2)cn1 (stereo not shown) [drawing 89]
pest or weed control at 100 ppm [2, 9]: 29% | pest or weed control at 500 ppm [2, 10]: 86%

N#Cc1cn(CC(O)(Cc2ccccc2Cl)C2(Cl)CC2)cn1 (stereo not shown) [drawing 91]
pest or weed control at 100 ppm [2, 9]: 0% | pest or weed control at 500 ppm [2, 10]: 83%

C#Cc1cn(CC(O)(Cc2ccccc2F)C2(Cl)CC2)cn1 (stereo not shown) [drawing 93]
pest or weed control at 100 ppm [2, 9]: 0% | pest or weed control at 500 ppm [2, 10]: 13%

OC(Cc1ccccc1F)(Cn1cnc(Cl)c1)C1(Cl)CC1 (stereo not shown) [drawing 95]
pest or weed control at 100 ppm [2, 9]: 0% | pest or weed control at 500 ppm [2, 10]: 33%

OC(Cc1ccccc1F)(Cn1ccnc1Cl)C1(Cl)CC1 (stereo not shown) [drawing 96]
pest or weed control at 100 ppm [2, 9]: 0% | pest or weed control at 500 ppm [2, 10]: 0%

N#Cc1cn(CC(O)(Cc2ccccc2F)C2(Cl)CC2)cn1 (stereo not shown) [drawing 104]
pest or weed control at 100 ppm [2, 9]: 11% | pest or weed control at 500 ppm [2, 10]: 78%

OC(Cc1ccccc1Cl)(Cn1cnc(Br)c1)C1(Cl)CC1 (stereo not shown) [drawing 123]
pest or weed control at 100 ppm [3, 11]: 75% | pest or weed control at 500 ppm [3, 12]: 83%

Cc1cn(CC(O)(Cc2ccccc2Cl)C2(Cl)CC2)cn1 (stereo not shown) [drawing 125]
pest or weed control at 100 ppm [3, 11]: 17% | pest or weed control at 500 ppm [3, 12]: 33%

N#Cc1cn(CC(O)(Cc2ccccc2Cl)C2(Cl)CC2)cn1 (stereo not shown) [drawing 127]
pest or weed control at 100 ppm [3, 11]: 44% | pest or weed control at 500 ppm [3, 12]: 78%

C#Cc1cn(CC(O)(Cc2ccccc2F)C2(Cl)CC2)cn1 (stereo not shown) [drawing 129]
pest or weed control at 100 ppm [3, 11]: 63% | pest or weed control at 500 ppm [3, 12]: 63%

OC(Cc1ccccc1F)(Cn1cnc(Cl)c1)C1(Cl)CC1 (stereo not shown) [drawing 131]
pest or weed control at 100 ppm [3, 11]: 0% | pest or weed control at 500 ppm [3, 12]: 93%

OC(Cc1ccccc1F)(Cn1ccnc1Cl)C1(Cl)CC1 (stereo not shown) [drawing 132]
pest or weed control at 100 ppm [3, 11]: 20% | pest or weed control at 500 ppm [3, 12]: 96%

N#Cc1cn(CC(O)(Cc2ccccc2F)C2(Cl)CC2)cn1 (stereo not shown) [drawing 140]
pest or weed control at 100 ppm [3, 11]: 14% | pest or weed control at 500 ppm [3, 12]: 86%

OC(Cc1ccccc1Cl)(Cn1cnc(Br)c1)C1(Cl)CC1 (stereo not shown) [drawing 142]
pest or weed control at 100 ppm [4, 13]: 20% | pest or weed control at 500 ppm [4, 14]: 30%

Cc1cn(CC(O)(Cc2ccccc2Cl)C2(Cl)CC2)cn1 (stereo not shown) [drawing 144]
pest or weed control at 100 ppm [4, 13]: 0% | pest or weed control at 500 ppm [4, 14]: 30%

C#Cc1cn(CC(O)(Cc2ccccc2F)C2(Cl)CC2)cn1 (stereo not shown) [drawing 146]
pest or weed control at 100 ppm [4, 13]: 0% | pest or weed control at 500 ppm [4, 14]: 60%

OC(Cc1ccccc1F)(Cn1cnc(Cl)c1)C1(Cl)CC1 (stereo not shown) [drawing 148]
pest or weed control at 100 ppm [4, 13]: 60% | pest or weed control at 500 ppm [4, 14]: 98%

OC(Cc1ccccc1F)(Cn1ccnc1Cl)C1(Cl)CC1 (stereo not shown) [drawing 149]
pest or weed control at 100 ppm [4, 13]: 0% | pest or weed control at 500 ppm [4, 14]: 78%

N#Cc1cn(CC(O)(Cc2ccccc2F)C2(Cl)CC2)cn1 (stereo not shown) [drawing 157]
pest or weed control at 100 ppm [4, 13]: 95% | pest or weed control at 500 ppm [4, 14]: 95%

OC(Cc1ccccc1Cl)(Cn1cnc(Br)c1)C1(Cl)CC1 (stereo not shown) [drawing 159]
pest or weed control at 100 ppm [5, 15]: 56% | pest or weed control at 500 ppm [5, 16]: 47%

Cc1cn(CC(O)(Cc2ccccc2Cl)C2(Cl)CC2)cn1 (stereo not shown) [drawing 161]
pest or weed control at 100 ppm [5, 15]: 0% | pest or weed control at 500 ppm [5, 16]: 100%

N#Cc1cn(CC(O)(Cc2ccccc2Cl)C2(Cl)CC2)cn1 (stereo not shown) [drawing 163]
pest or weed control at 100 ppm [5, 15]: 25% | pest or weed control at 500 ppm [5, 16]: 50%

C#Cc1cn(CC(O)(Cc2ccccc2F)C2(Cl)CC2)cn1 (stereo not shown) [drawing 165]
pest or weed control at 100 ppm [5, 15]: 0% | pest or weed control at 500 ppm [5, 16]: 0%

OC(Cc1ccccc1F)(Cn1cnc(Cl)c1)C1(Cl)CC1 (stereo not shown) [drawing 167]
pest or weed control at 100 ppm [5, 15]: 0% | pest or weed control at 500 ppm [5, 16]: 0%

OC(Cc1ccccc1F)(Cn1ccnc1Cl)C1(Cl)CC1 (stereo not shown) [drawing 168]
pest or weed control at 100 ppm [5, 15]: 0% | pest or weed control at 500 ppm [5, 16]: 0%

N#Cc1cn(CC(O)(Cc2ccccc2F)C2(Cl)CC2)cn1 (stereo not shown) [drawing 176]
pest or weed control at 100 ppm [5, 15]: 25% | pest or weed control at 500 ppm [5, 16]: 56%
